Assay results taken from the supplement of paper PMC10307832.

Assays:
Assay in all cases: relative viability (nuclei count vs DMSO), 5 days (fraction); higher = more cells survive
[1] = test system: NCI-H1915
How it was run: (§1)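 Relative viability equals treated-well nuclei counts divided by vehicle-well nuclei counts. Counts came from 4× images of lung cancer cell lines grown in 1536-well plates for 5 days after pin-tool dosing on the day after seeding. Dosing used one drug alone or a fixed anchor-drug dose plus five library-drug doses (not always all listed) in √10 steps, and values are medians of duplicate plates.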

[2] = test system: NCI-H2347
How it was run: as §1

[3] = test system: NCI-H2126
How it was run: as §1

[4] = test system: HCC-15
How it was run: as §1

[5] = test system: NCI-H2228
How it was run: as §1

[6] = test system: NCI-H460
How it was run: as §1

[7] = test system: HOP-62
How it was run: as §1

[8] = test system: NCI-H1975
How it was run: as §1

[9] = test system: PC-3 [JPC-3]
How it was run: as §1

[10] = test system: A-427
How it was run: as §1

[11] = test system: SW 1573
How it was run: as §1

[12] = test system: NCI-H1792
How it was run: as §1

[13] = test system: NCI-H2342
How it was run: as §1

[14] = test system: LC-2-ad
How it was run: as §1

[15] = test system: RERF-LC-KJ
How it was run: as §1

[16] = test system: LXF-289
How it was run: as §1

[17] = test system: NCI-H358
How it was run: as §1

[18] = test system: LOU-NH91
How it was run: as §1

[19] = test system: NCI-H1755
How it was run: as §1

[20] = test system: NCI-H1734
How it was run: as §1

[21] = test system: NCI-H647
How it was run: as §1

[22] = test system: SK-LU-1
How it was run: as §1

Q: For C=C1C(=O)O[C@@H](CCCCCCCC)[C@@H]1C(=O)O [C-75] + CCNC(=O)c1noc(-c2cc(C(C)C)c(O)cc2O)c1-c1ccc(CN2CCOCC2)cc1 [Luminespib] (partner 0.01 µM), which relative viability ([1]; first compound 0.08 µM) is on record?
A: 0.694

Q: What about the relative viability ([1]; first compound 0.253 µM) of the same compound?
A: 0.768

Q: And the relative viability ([1]; first compound 0.8 µM)?
A: 0.798

Q: What about the relative viability ([1]; first compound 2.53 µM) of the same compound?
A: 0.717

Q: And the relative viability ([1]; first compound 8 µM)?
A: 0.677

Q: And the relative viability ([2]; first compound 0.08 µM)?
A: 0.409

Q: And the relative viability ([2]; first compound 0.253 µM)?
A: 0.474

Q: What about the relative viability ([2]; first compound 0.8 µM) of the same compound?
A: 0.294

Q: What about the relative viability ([2]; first compound 8 µM) of the same compound?
A: 0.446

Q: And the relative viability ([3]; first compound 0.08 µM)?
A: 0.931

Q: What about the relative viability ([3]; first compound 0.253 µM) of the same compound?
A: 0.977

Q: And the relative viability ([3]; first compound 0.8 µM)?
A: 0.804

Q: And the relative viability ([3]; first compound 2.53 µM)?
A: 0.815

Q: And the relative viability ([3]; first compound 8 µM)?
A: 0.872

Q: And the relative viability ([4]; first compound 0.08 µM)?
A: 0.303

Q: And the relative viability ([4]; first compound 0.253 µM)?
A: 0.271

Q: What about the relative viability ([4]; first compound 0.8 µM) of the same compound?
A: 0.148

Q: What about the relative viability ([4]; first compound 2.53 µM) of the same compound?
A: 0.345

Q: What about the relative viability ([4]; first compound 8 µM) of the same compound?
A: 0.196

Q: And the relative viability ([5]; first compound 0.08 µM)?
A: 0.135

Q: What about the relative viability ([5]; first compound 0.253 µM) of the same compound?
A: 0.161

Q: What about the relative viability ([5]; first compound 0.8 µM) of the same compound?
A: 0.116

Q: And the relative viability ([5]; first compound 2.53 µM)?
A: 0.181

Q: What about the relative viability ([5]; first compound 8 µM) of the same compound?
A: 0.283

Q: And the relative viability ([6]; first compound 0.08 µM)?
A: 0.0308

Q: What about the relative viability ([6]; first compound 0.253 µM) of the same compound?
A: 0.0239

Q: What about the relative viability ([6]; first compound 0.8 µM) of the same compound?
A: 0.0329

Q: And the relative viability ([6]; first compound 8 µM)?
A: 0.0319

Q: What about the relative viability ([7]; first compound 0.08 µM) of the same compound?
A: 0.858

Q: What about the relative viability ([7]; first compound 0.253 µM) of the same compound?
A: 0.945

Q: What about the relative viability ([7]; first compound 0.8 µM) of the same compound?
A: 0.902

Q: And the relative viability ([7]; first compound 2.53 µM)?
A: 0.909

Q: And the relative viability ([7]; first compound 8 µM)?
A: 0.801

Q: What about the relative viability ([8]; first compound 0.08 µM) of the same compound?
A: 0.161

Q: And the relative viability ([8]; first compound 0.253 µM)?
A: 0.195

Q: What about the relative viability ([8]; first compound 0.8 µM) of the same compound?
A: 0.122

Q: And the relative viability ([8]; first compound 2.53 µM)?
A: 0.13

Q: And the relative viability ([8]; first compound 8 µM)?
A: 0.252

Q: What about the relative viability ([9]; first compound 0.08 µM) of the same compound?
A: 0.678

Q: And the relative viability ([9]; first compound 0.253 µM)?
A: 0.667

Q: And the relative viability ([9]; first compound 0.8 µM)?
A: 0.739

Q: What about the relative viability ([9]; first compound 2.53 µM) of the same compound?
A: 0.533

Q: And the relative viability ([9]; first compound 8 µM)?
A: 0.895

Q: And the relative viability ([10]; first compound 0.08 µM)?
A: 0.931

Q: And the relative viability ([10]; first compound 0.253 µM)?
A: 0.788

Q: And the relative viability ([10]; first compound 0.8 µM)?
A: 0.922

Q: What about the relative viability ([10]; first compound 2.53 µM) of the same compound?
A: 0.842

Q: And the relative viability ([10]; first compound 8 µM)?
A: 0.703

Q: What about the relative viability ([11]; first compound 0.08 µM) of the same compound?
A: 0.168

Q: What about the relative viability ([11]; first compound 0.253 µM) of the same compound?
A: 0.254

Q: And the relative viability ([11]; first compound 0.8 µM)?
A: 0.207

Q: And the relative viability ([11]; first compound 2.53 µM)?
A: 0.216

Q: And the relative viability ([11]; first compound 8 µM)?
A: 0.157

Q: What about the relative viability ([12]; first compound 0.08 µM) of the same compound?
A: 0.423

Q: What about the relative viability ([12]; first compound 0.253 µM) of the same compound?
A: 0.484

Q: What about the relative viability ([12]; first compound 0.8 µM) of the same compound?
A: 0.514

Q: And the relative viability ([12]; first compound 2.53 µM)?
A: 0.331

Q: What about the relative viability ([12]; first compound 8 µM) of the same compound?
A: 0.522

Q: And the relative viability ([13]; first compound 0.08 µM)?
A: 0.798

Q: What about the relative viability ([13]; first compound 0.253 µM) of the same compound?
A: 0.802

Q: What about the relative viability ([13]; first compound 0.8 µM) of the same compound?
A: 0.689

Q: And the relative viability ([13]; first compound 2.53 µM)?
A: 0.743

Q: What about the relative viability ([13]; first compound 8 µM) of the same compound?
A: 0.68

Q: And the relative viability ([14]; first compound 0.08 µM)?
A: 1.06

Q: What about the relative viability ([14]; first compound 0.253 µM) of the same compound?
A: 0.801

Q: And the relative viability ([14]; first compound 0.8 µM)?
A: 0.95

Q: What about the relative viability ([14]; first compound 2.53 µM) of the same compound?
A: 0.797

Q: What about the relative viability ([14]; first compound 8 µM) of the same compound?
A: 0.91

Q: And the relative viability ([15]; first compound 0.08 µM)?
A: 1.31

Q: What about the relative viability ([15]; first compound 0.253 µM) of the same compound?
A: 1.22

Q: What about the relative viability ([15]; first compound 0.8 µM) of the same compound?
A: 1.23

Q: And the relative viability ([15]; first compound 2.53 µM)?
A: 1.08

Q: And the relative viability ([15]; first compound 8 µM)?
A: 1.11

Q: What about the relative viability ([16]; first compound 0.08 µM) of the same compound?
A: 0.599

Q: What about the relative viability ([16]; first compound 0.253 µM) of the same compound?
A: 0.66

Q: And the relative viability ([16]; first compound 0.8 µM)?
A: 0.671

Q: What about the relative viability ([16]; first compound 2.53 µM) of the same compound?
A: 0.641

Q: And the relative viability ([16]; first compound 8 µM)?
A: 0.702

Q: What about the relative viability ([17]; first compound 0.08 µM) of the same compound?
A: 0.338

Q: What about the relative viability ([17]; first compound 0.253 µM) of the same compound?
A: 0.247

Q: What about the relative viability ([17]; first compound 0.8 µM) of the same compound?
A: 0.314

Q: What about the relative viability ([17]; first compound 2.53 µM) of the same compound?
A: 0.355

Q: And the relative viability ([17]; first compound 8 µM)?
A: 0.224

Q: What about the relative viability ([18]; first compound 0.08 µM) of the same compound?
A: 0.307

Q: What about the relative viability ([18]; first compound 0.253 µM) of the same compound?
A: 0.346

Q: And the relative viability ([18]; first compound 0.8 µM)?
A: 0.344

Q: And the relative viability ([18]; first compound 2.53 µM)?
A: 0.29

Q: What about the relative viability ([18]; first compound 8 µM) of the same compound?
A: 0.32

Q: What about the relative viability ([19]; first compound 0.08 µM) of the same compound?
A: 0.384

Q: What about the relative viability ([19]; first compound 0.253 µM) of the same compound?
A: 0.489

Q: And the relative viability ([19]; first compound 0.8 µM)?
A: 0.465

Q: And the relative viability ([19]; first compound 2.53 µM)?
A: 0.467

Q: What about the relative viability ([19]; first compound 8 µM) of the same compound?
A: 0.416

Q: And the relative viability ([20]; first compound 0.08 µM)?
A: 0.201

Q: And the relative viability ([20]; first compound 0.253 µM)?
A: 0.192

Q: And the relative viability ([20]; first compound 0.8 µM)?
A: 0.178

Q: What about the relative viability ([20]; first compound 2.53 µM) of the same compound?
A: 0.184

Q: And the relative viability ([20]; first compound 8 µM)?
A: 0.185

Q: What about the relative viability ([21]; first compound 0.08 µM) of the same compound?
A: 0.114

Q: And the relative viability ([21]; first compound 0.253 µM)?
A: 0.256

Q: What about the relative viability ([21]; first compound 0.8 µM) of the same compound?
A: 0.183

Q: What about the relative viability ([21]; first compound 2.53 µM) of the same compound?
A: 0.117

Q: And the relative viability ([21]; first compound 8 µM)?
A: 0.13

Q: What about the relative viability ([22]; first compound 0.08 µM) of the same compound?
A: 0.202

Q: And the relative viability ([22]; first compound 0.253 µM)?
A: 0.191

Q: And the relative viability ([22]; first compound 0.8 µM)?
A: 0.184

Q: And the relative viability ([22]; first compound 2.53 µM)?
A: 0.193

Q: What about the relative viability ([22]; first compound 8 µM) of the same compound?
A: 0.161
